Results as given in US20240216369A1, “THE USE OF A SPLICING MODULATOR FOR A TREATMENT SLOWING PROGRESSION OF HUNTINGTON'S DISEASE” (Novartis AG, priority 2019, published 2024).
Entries after “also recorded” stand apart in the source; their conditions may differ.

What was measured:
Assay type in all cases: in vivo
[1] = test system: total HTT transcript; experiment: Repeat oral dosing in BacHD mice: total HTT transcript in blood; conditions: 12 or 24 mg/kg oral, thrice weekly for three weeks; listed as branaplam
Method: (§1) For the repeat dosing study, twenty-four BacHD mice (FVB/N-Tg(HTT*97Q)IXwy/J transgenic mice—Jackson Laboratories) were used for the experiment. Animal protocols were approved by the Children's Hospital of Philadelphia Institutional Animal Care and use Committee. Mice were housed in a temperature-controlled environment on a 12-h light/dark cycle. Food and water were provided ad libitum.
For the repeat dosing study, branaplam or vehicle was administered by oral gavage 3 times a week for 3 consecutive weeks. Mice were divided in 4 groups (n=6 mice/group) and treated with branaplam (12 mg/kg—1 group, or 24 mg/kg—2 groups), or vehicle (1 groups) as control. […] The amount of branaplam or vehicle administrated to each mouse was based on the weight recorded the day of dosing. […]
RNA from blood was extracted using PAXgene blood RNA kit (Qiagen) according to manufacturer protocol. The RNA was quantified by Nanodrop 2000 (Thermo Scientific). cDNAs were synthesized from 140-400 ng RNA using Maxima First strand cDNA synthesis kit using a mix of oligo dT and random hexamers (Thermo Scientific) in 20 uL reaction at 25° C. for 10 min, 50° C. for 15 min then 85° C. for 5 min. Quantitative PCR was performed using Taqman Fast Advanced master mix (Thermo Scientific) in 20 uL with 4 uL of cDNA reaction and primers specific for each genes. […]

[2] = Mouse population PK model (plasma); conditions: popPK parameters (plasma)
Method: For the establishment of the PK/PD relationship and the development of a mouse PK/PD model, the PK parameters in mouse plasma were estimated considering PK data from studies with male C57BL/6 mice (10 mg/kg, single dose), rasH2 mice (1, 3, 4 and 10 mg/kg, repeated daily doses), and BacHD mice (10 and 50 mg/kg, single dose; 12 and 24 mg/kg, repeated, three times a week doses). […] The population PK model was described and executed by Monolix software (Version 2018R1, Lixoft).

[3] = test system: mutant HTT protein; experiment: Repeat oral dosing in BacHD mice: mutant HTT protein in tissues (Western blot)
Method: as §1
For the repeat dosing study, branaplam or vehicle was administered by oral gavage 3 times a week for 3 consecutive weeks. Mice were divided in 4 groups (n=6 mice/group) and treated with branaplam (12 mg/kg—1 group, or 24 mg/kg—2 groups), or vehicle (1 groups) as control. Mice were firmly restrained by grasping the loose skin to immobilize the head, maintained in a vertical position and a 22- to 26-gauge gavage needle was placed in the side of the mouth. The needle was guided following the roof of the mouth into the esophagus and allowed to gently enter in the stomach. The amount of branaplam or vehicle administrated to each mouse was based on the weight recorded the day of dosing.
At 24 h (vehicle and branaplam 12 mg/Kg & 24 mg/Kg), and 72 h (branaplam 24 mg/Kg) after the last treatment, blood, CSF, and tissue samples were obtained for PK and PD analysis. To collect CSF, mice were placed in a rodent anesthesia induction chamber where they are exposed to 4-5% isoflurane in 100% oxygen carrier gas. Once an appropriate plane of anesthesia was achieved, they were moved to a nose cone so that maintenance levels of isoflurane (1-3%) could be delivered throughout the procedure. The dorsal aspect of their cervical and occipital region was surgically prepped to visualize the dura mater under a microscope. A glass micropipette attached to a micromanipulator was introduced to the cisterna magna via a puncture through the dura mater at a point where no vasculature was visualized, and CSF was allowed to flow into the micropipette via capillary action. After approximately 15-30 minutes, the micropipette was removed from the cisterna magna, the CSF sample was transferred into Eppendorf tubes, flash frozen in liquid nitrogen, and stored at −80° C.
Following CSF collection, mice were kept under anesthesia with isoflurane. Blood was obtained via submandibular vein bleeds and collected for RNA extraction (PD analysis) using RNAprotect Animal Blood Tubes, and plasma (PK analysis) using K2EDTA coated tubes. […]
Snap-frozen mouse tissue samples were homogenized in RIPA buffer with protease and phosphatase inhibitor (Thermo Scientific) by Precellys at 6000 rpm for 40 sec. […] Total protein concentration was quantified using the BCA protein Assay (Thermo Scientific). […] Protein bands were quantified by Image J.

[4] = 12 or 24 mg/kg oral, thrice weekly for three weeks, 24 h post-dosing, listed as branaplam

Structure (SMILES): CC1(C)CC(Oc2ccc(-c3ccc(-c4cn[nH]c4)cc3O)nn2)CC(C)(C)N1 [Compound 18, 5-(1H-pyrazol-4-yl)-2-(6-((2,2,6,6-tetramethylpiperidin-4-yl)oxy)pyridazin-3-yl)phenol]
- total HTT transcript in blood [1]: robust lowering; also recorded: lowers
- CL/F ([2]; C57BL/6, rasH2, BacHD (pooled), other: extra-vascular administration): 55.8 mL/min/kg
- Q/F [2]: 8.4 mL/min/kg
- V1 [2]: 28.2 L/kg
- V2 [2]: 32.5 L/kg
- ka [2]: 0.429 h⁻¹
- Tlag ([2]; pooled C57BL/6, rasH2 and BacHD data): 0.346 h
- mutant HTT protein, 72 h relative to 24 h ([3]; 24 mg/kg cohort, takedown 72 h post-dose): trend towards further lowering
- mutant HTT protein in the cortex [3, 4]: dose dependent, significant lowering; also recorded: lowers
- mutant HTT protein in the striatum [3, 4]: dose dependent, significant lowering; also recorded: lowers
- mHTT protein in the liver ([3]; 12 or 24 mg/kg oral, thrice weekly for three weeks, listed as branaplam): robust lowering; also recorded: lowers
